Reference: patent publication US12134759B2, “Glomerulus on a chip to recapitulate glomerular filtration barrier” (Children's Hospital Los Angeles, priority 2019, dated 2024)
“Also recorded” adds a separate entry of the source. No end group written: not given here.

Tests used:
hAKPC-P+hGEC GOAC = test: α-MSH drug rescue of MN serum effect, albumin permselectivity assay; format: cell-based, human; details: 10 ng/ml α-MSH with 0.5% MN serum (MN3), 24 h; filtrate at 60 min
Procedure: (§1) An albumin and inulin permeability assay were established to evaluate the efficiency of the created GFB. The number of chips used for each experiment is described in the corresponding figure legend. Media was aspirated from the bottom inlet and outlet, to which PBS was added. Then, media from the top inlet and outlet was aspirated. Fifty microliters albumin-FITC (Millipore Sigma, c #A9771) or inulin-FITC (10 mg/ml, Sigma, c #F3272) was added to the top inlet and outlet, such that the orientation of filtration would be simulated as in native blood flow: from endothelial cells, through podocytes, and into the urinary space of Bowman's capsule. […] Absorbance was measured using the Perkin Elmer Victor 3 plate reader using Wallac 1420 workstation software (fluorescein 485/535, 0.1 s). For long-term studies, the same chips were evaluated for permselectivity at respectively 1, 2, 3, and 4 weeks (hAKPC and hpPOD; hiPOD were evaluated for weeks 1 and 2 since after this time frame these chips are not properly functioning) after hGEC seeding. […] After each reading, as described above, the albumin-FITC solution and PBS were removed from the top and bottom inlets and outlets and chips were carefully rinsed with PBS twice to remove excess albumin-FITC before returning to fresh culture medium. […] Efficiency at each time point is expressed as %±SEM. […]

podocytes in GOAC = test: F-actin staining of podocytes in the GOAC before and after PAN damage; format: cell-based, human; details: after PAN damage; hAKPC-P+hGEC, hiPOD+hGEC, hpPOD+hGEC chips
Procedure: Immunofluorescent staining was performed on OrganoPlate™ and chamber slides of representative cell types: following fixation by 4% paraformaldehyde (Santa Cruz Biotechnology c #sc-281692) and serial washes with PBS. Chips/wells of interest were prepared for staining by blocking with 5% bovine serum albumin (Jackson ImmunoResearch Lab, c #001-000-162) in PBS for 30 min. Primary, secondary, and pre-conjugated antibodies were diluted in 2.5% BSA Jackson ImmunoResearch Lab. c #001-000-162) as indicated in Table 1. Thirty microliters of solution were added to the top and bottom inlets and outlets of the chips or 100 μl of solution was added directly into the chamber slide wells. Primary antibodies were incubated at RT for 1 h; following serial washes, secondary antibodies were incubated at RT for 30 min. After a final series of washes in PBS, DAPI was applied (1:1000 in PBS; BD Pharmingen, c #564907) and the OrganoPlate™ or the wells were stored at 4° C. until imaged by confocal microscopy (Zeiss 710 microscope) and processed using the ZEN10 software.
In all, 10 μg/ml of PAN, a nephrotoxic molecule (Cayman Chemical c #15509), was supplemented to the media for 5 days. Media without PAN was used as a control. […] After PAN injury, damage was assessed using the albumin assay performed on the chip as described above.

[1] = system: GOAC (human podocytes + hGEC glomerular filtration barrier); test: Albumin permselectivity assay on the GOAC after puromycin aminonucleoside (PAN) injury; format: cell-based; details: PAN 5 days (10 μg/ml, 10 mg/ml elsewhere in the source); albumin-FITC 40 mg/ml; hAKPC-P+hGEC, hiPOD+hGEC, hpPOD+hGEC chips
Procedure: as §1

Row | Molecule | proteinuria (albumin-FITC leakage) elicited by MN serum (hAKPC-P+hGEC GOAC) | podocyte cytoskeleton (F-actin staining) (podocytes in GOAC) | albumin permselectivity / albumin leakage (fluorescein absorbance in filtrate after 60 min) [1]
1 | α-Melanocyte-stimulating hormone (SYSMEHFRWGKPV; ends and bridges not checked; UniProt P01189 138-150, looked up) [α-MSH] | prevented proteinuria elicited by MN serum; also recorded: prevented the proteinuric effects of MN sera | – | –
2 | CN(C)c1ncnc2c1ncn2[C@@H]1O[C@H](CO)[C@@H](N)[C@H]1O [PAN, puromycin aminonucleoside] | – | cytoskeleton rearrangement; also recorded: widespread disruption of the cytoskeleton | loss of permselectivity for albumin; also recorded: marked and statistically significant increase
